Laboratory results: patent US6737383B1, “Herbicidal oxadiazolidines” (priority 1999, dated 2004)

Experiments:
bedstraw = assay: Test B pre/postemergence bedstraw; assay type: in vivo, Galium aparine
Method in brief: (§1)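 Herbicidal effect was estimated by eye on a ten-point control scale after plants spent twelve to sixteen days in a greenhouse following soil or foliar treatment. Foliar sprays targeted plants at one to four leaves; all doses were formulated in a non-phytotoxic solvent with surfactant.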

blackgrass = assay: Test B pre/postemergence blackgrass; assay type: in vivo, Alopecurus myosuroides
Method in brief: as §1

surinam grass = assay: Test B pre/postemergence surinam grass; assay type: in vivo, Brachiaria decumbens
Method in brief: as §1

cocklebur = assay: Test B pre/postemergence cocklebur; assay type: in vivo, Xanthium strumarium
Method in brief: as §1

corn = assay: Test B pre/postemergence corn; assay type: in vivo, Zea mays
Method in brief: as §1

giant foxtail = assay: Test B pre/postemergence giant foxtail; assay type: in vivo, Setaria faberii
Method in brief: as §1

morningglory = assay: Test B pre/postemergence morningglory; assay type: in vivo, Ipomoea hederacea
Method in brief: as §1

pigweed = assay: Test B pre/postemergence pigweed; assay type: in vivo, Amaranthus retroflexus
Method in brief: as §1

rape = assay: Test B pre/postemergence rape; assay type: in vivo, Brassica napus
Method in brief: as §1

soybean = assay: Test B pre/postemergence soybean; assay type: in vivo, Glycine max
Method in brief: as §1

sugar beet = assay: Test B pre/postemergence sugar beet; assay type: in vivo, Beta vulgaris
Method in brief: as §1

velvetleaf = assay: Test B pre/postemergence velvetleaf; assay type: in vivo, Abutilon theophrasti
Method in brief: as §1

wheat = assay: Test B pre/postemergence wheat; assay type: in vivo, Triticum aestivum
Method in brief: as §1

wild oat = assay: Test B pre/postemergence wild oat; assay type: in vivo, Avena fatua
Method in brief: as §1

[1] = Postemergence, Rate 62 g/ha, scale 0 to 10, 0 is no effect, 10 is complete control
[2] = Postemergence, Rate 250 g/ha, scale 0 to 10, 0 no effect, 10 complete control
[3] = Preemergence, Rate 62 g/ha, scale 0 to 10 (0 no effect, 10 complete control)
[4] = Preemergence, Rate 125 g/ha, scale 0 to 10 (0 no effect, 10 complete control)
[5] = Preemergence, Rate 250 g/ha, scale of 0 to 10 where 0 is no effect and 10 is complete control
[6] = Preemergence, Rate 500 g/ha, scale 0 (no effect) to 10 (complete control)
[7] = Rate 125 g/ha, Postemergence, scale 0 to 10, 0 no effect, 10 complete control
[8] = Rate 500 g/ha, Postemergence, scale 0 to 10, 0 no effect, 10 complete control
[9] = Postemergence, Rate 125 g/ha, scale of 0 to 10 where 0 is no effect and 10 is complete control

Structure (SMILES): Cc1ccccc1Cn1c(=O)on(C(=O)N(c2ccc(F)cc2)C(C)C)c1=O [Compound 88]
- Bedstraw plant response rating (bedstraw; [1]): 3
- Bedstraw plant response rating (bedstraw; [2]): 9
- Bedstraw plant response rating (bedstraw; [3]): 0
- Plant response rating, Bedstraw (bedstraw; [4]): 0
- Plant response rating, Bedstraw (bedstraw; [5]): 0
- Bedstraw plant response rating (bedstraw; [6]): 2
- Bedstraw plant response rating (bedstraw; [7]): 8
- Bedstraw plant response rating (bedstraw; [8]): 9
- Blackgrass plant response rating (blackgrass; [1]): 2
- Blackgrass plant response rating (blackgrass; [9]): 5
- Blackgrass plant response rating (blackgrass; [2]): 6
- Blackgrass plant response rating (blackgrass; [3]): 1
- Plant response rating, Blackgrass (blackgrass; [4]): 4
- Plant response rating, Blackgrass (blackgrass; [5]): 4
- Blackgrass plant response rating (blackgrass; [6]): 6
- Blackgrass plant response rating (blackgrass; [8]): 6
- B. signalgrass plant response rating (surinam grass; [1]): 0
- B. signalgrass plant response rating (surinam grass; [2]): 0
- B. signalgrass plant response rating (surinam grass; [3]): 0
- Plant response rating, B. signalgrass (surinam grass; [4]): 2
- Plant response rating, B. signalgrass (surinam grass; [5]): 2
- B. signalgrass plant response rating (surinam grass; [6]): 5
- B. signalgrass plant response rating (surinam grass; [7]): 2
- B. signalgrass plant response rating (surinam grass; Rate 500 g/ha, Postemergence, scale of 0 to 10 where 0 is no effect and 10 is complete control): 2
- Cocklebur plant response rating (cocklebur; [1]): 0
- Cocklebur plant response rating (cocklebur; [9]): 0
- Cocklebur plant response rating (cocklebur; [2]): 1
- Cocklebur plant response rating (cocklebur; [3]): 0
- Plant response rating, Cocklebur (cocklebur; [4]): 0
- Plant response rating, Cocklebur (cocklebur; [5]): 0
- Cocklebur plant response rating (cocklebur; [6]): 0
- Cocklebur plant response rating (cocklebur; [8]): 5
- Corn plant response rating (corn; [1]): 0
- Corn plant response rating (corn; [9]): 0
- Corn plant response rating (corn; [2]): 0
- Corn plant response rating (corn; [3]): 0
- Plant response rating, Corn (corn; [4]): 0
- Plant response rating, Corn (corn; [5]): 0
- Corn plant response rating (corn; [6]): 0
- Corn plant response rating (corn; [8]): 0
- Giant foxtail plant response rating (giant foxtail; [1]): 0
- Giant foxtail plant response rating (giant foxtail; [9]): 3
- Giant foxtail plant response rating (giant foxtail; [2]): 3
- Giant foxtail plant response rating (giant foxtail; [3]): 4
- Plant response rating, Giant foxtail (giant foxtail; [4]): 6
- Plant response rating, Giant foxtail (giant foxtail; [5]): 10
- Giant foxtail plant response rating (giant foxtail; [6]): 10
- Giant foxtail plant response rating (giant foxtail; [8]): 3
- Morningglory plant response rating (morningglory; [1]): 8
- Morningglory plant response rating (morningglory; [9]): 10
- Morningglory plant response rating (morningglory; [2]): 10
- Morningglory plant response rating (morningglory; [3]): 0
- Plant response rating, Morningglory (morningglory; [4]): 0
- Plant response rating, Morningglory (morningglory; [5]): 0
- Morningglory plant response rating (morningglory; [6]): 0
- Morningglory plant response rating (morningglory; [8]): 10
- Redroot pigweed plant response rating (pigweed; [1]): 3
- Redroot pigweed plant response rating (pigweed; [9]): 3
- Redroot pigweed plant response rating (pigweed; [2]): 3
- Redroot pigweed plant response rating (pigweed; [3]): 9
- Plant response rating, Redroot pigweed (pigweed; [4]): 10
- Plant response rating, Redroot pigweed (pigweed; [5]): 10
- Redroot pigweed plant response rating (pigweed; [6]): 10
- Redroot pigweed plant response rating (pigweed; [8]): 5
- Rape plant response rating (rape; [1]): 0
- Rape plant response rating (rape; [9]): 0
- Rape plant response rating (rape; [2]): 0
- Rape plant response rating (rape; [3]): 0
- Plant response rating, Rape (rape; [4]): 0
- Plant response rating, Rape (rape; [5]): 0
- Rape plant response rating (rape; [6]): 0
- Rape plant response rating (rape; [8]): 3
- Soybean plant response rating (soybean; [1]): 1
- Soybean plant response rating (soybean; [9]): 1
- Soybean plant response rating (soybean; [2]): 1
- Soybean plant response rating (soybean; [3]): 0
- Plant response rating, Soybean (soybean; [4]): 0
- Plant response rating, Soybean (soybean; [5]): 0
- Soybean plant response rating (soybean; [6]): 2
- Soybean plant response rating (soybean; [8]): 1
- Sugarbeets plant response rating (sugar beet; [1]): 3
- Sugarbeets plant response rating (sugar beet; [9]): 5
- Sugarbeets plant response rating (sugar beet; [2]): 7
- Sugarbeets plant response rating (sugar beet; [3]): 2
- Plant response rating, Sugarbeets (sugar beet; [4]): 3
- Plant response rating, Sugarbeets (sugar beet; [5]): 6
- Sugarbeets plant response rating (sugar beet; [6]): 8
- Sugarbeets plant response rating (sugar beet; [8]): 7
- Velvetleaf plant response rating (velvetleaf; [1]): 0
- Velvetleaf plant response rating (velvetleaf; [9]): 0
- Velvetleaf plant response rating (velvetleaf; [2]): 0
- Velvetleaf plant response rating (velvetleaf; [3]): 0
- Plant response rating, Velvetleaf (velvetleaf; [4]): 0
- Plant response rating, Velvetleaf (velvetleaf; [5]): 0
- Velvetleaf plant response rating (velvetleaf; [6]): 2
- Velvetleaf plant response rating (velvetleaf; [8]): 0
- Wheat plant response rating (wheat; [1]): 0
- Wheat plant response rating (wheat; [9]): 0
- Wheat plant response rating (wheat; [2]): 0
- Wheat plant response rating (wheat; [3]): 0
- Plant response rating, Wheat (wheat; [4]): 0
- Plant response rating, Wheat (wheat; [5]): 0
- Wheat plant response rating (wheat; [6]): 0
- Wheat plant response rating (wheat; [8]): 0
- Wild oats plant response rating (wild oat; [1]): 0
- Wild oats plant response rating (wild oat; [9]): 0
- Wild oats plant response rating (wild oat; [2]): 0
- Wild oats plant response rating (wild oat; [3]): 0
- Plant response rating, Wild oats (wild oat; [4]): 2
- Plant response rating, Wild oats (wild oat; [5]): 2
- Wild oats plant response rating (wild oat; [6]): 5
- Wild oats plant response rating (wild oat; [8]): 0
